Measurements as given in paper PMC5218480 (PLoS ONE, 2017).

Test system: MV-4-11 cells
Assay: Gene expression microarray analysis (Affymetrix PrimeView) and GSEA
Format: cell-based, human
Parameters: RFU PODN (11730768_x_at) / Fold change /veh PODN (11730768_x_at) / RFU LINC00158 (11744669_a_at) / Fold change /veh LINC00158 (11744669_a_at) / RFU DUSP10 (11751237_a_at) / Fold change /veh DUSP10 (11751237_a_at) / RFU ID3 (11757404_x_at) / Fold change /veh ID3 (11757404_x_at) / RFU PLEKHG5 (11737974_s_at) / Fold change /veh PLEKHG5 (11737974_s_at) / RFU LRRC4B (11730491_at) / Fold change /veh LRRC4B (11730491_at) / RFU GIMAP4 (11747438_a_at) / Fold change /veh GIMAP4 (11747438_a_at) / RFU KRT8 (11758183_x_at) / Fold change /veh KRT8 (11758183_x_at) / RFU CNN1 (11734310_a_at) / Fold change /veh CNN1 (11734310_a_at) / RFU VPS37D (11726825_at) / Fold change /veh VPS37D (11726825_at) / RFU C10orf10 (11716522_x_at) / Fold change /veh C10orf10 (11716522_x_at) / RFU KIR2DL2 /// KIR2DL4 /// KIR2DL5A /// KIR2DL5B /// KIR2DS1 /// KIR2DS2 /// KIR2DS3 /// KIR2DS4 /// KIR3DL3 /// KIR3DL3 /// KIR3DS1 (11738374_at) / Fold change /veh KIR2DL2 /// KIR2DL4 /// KIR2DL5A /// KIR2DL5B /// KIR2DS1 /// KIR2DS2 /// KIR2DS3 /// KIR2DS4 /// KIR3DL3 /// KIR3DL3 /// KIR3DS1 (11738374_at) / RFU C1QL1 (11718748_at) / Fold change /veh C1QL1 (11718748_at) / RFU TMPRSS4 (11747572_a_at) / Fold change /veh TMPRSS4 (11747572_a_at) / RFU HAMP (11756126_x_at) / Fold change /veh HAMP (11756126_x_at) / RFU RNFT2 (11725882_a_at) / Fold change /veh RNFT2 (11725882_a_at) / RFU NR4A2 (11747474_a_at) / Fold change /veh NR4A2 (11747474_a_at) / RFU ABCC12 (11746883_a_at) / Fold change /veh ABCC12 (11746883_a_at) / RFU TMEM136 (11760407_x_at) / Fold change /veh TMEM136 (11760407_x_at) / RFU CLDN22 /// WWC2 (11732394_at) / Fold change /veh CLDN22 /// WWC2 (11732394_at) / RFU HLA-DPB1 (11760878_x_at) / Fold change /veh HLA-DPB1 (11760878_x_at) / RFU SPINT1 (11716480_a_at) / Fold change /veh SPINT1 (11716480_a_at) / RFU GAP43 (11754022_s_at) / Fold change /veh GAP43 (11754022_s_at) / RFU A4GNT (11735810_at) / Fold change /veh A4GNT (11735810_at) / RFU PRB3 (11715151_x_at) / Fold change /veh PRB3 (11715151_x_at) / RFU TUBB4B (11761932_at) / Fold change /veh TUBB4B (11761932_at) / RFU CAPN14 (11732068_a_at) / Fold change /veh CAPN14 (11732068_a_at) / RFU TMCC2 (11721928_a_at) / Fold change /veh TMCC2 (11721928_a_at) / RFU IRGQ (11745062_a_at) / Fold change /veh IRGQ (11745062_a_at) / RFU FAM174B (11720279_a_at) / Fold change /veh FAM174B (11720279_a_at) / RFU TMPRSS4 (11748680_a_at) / Fold change /veh TMPRSS4 (11748680_a_at) / RFU FAM212B (11763350_a_at) / Fold change /veh FAM212B (11763350_a_at) / RFU PLEKHG5 (11743358_a_at) / Fold change /veh PLEKHG5 (11743358_a_at) / RFU ZSCAN30 (11745921_a_at) / Fold change /veh ZSCAN30 (11745921_a_at) / RFU CMKLR1 (11741424_a_at) / Fold change /veh CMKLR1 (11741424_a_at) / RFU LOC101060620 /// MAPK8IP1 (11723275_at) / Fold change /veh LOC101060620 /// MAPK8IP1 (11723275_at) / RFU SPTSSB (11747773_x_at) / Fold change /veh SPTSSB (11747773_x_at) / RFU PRSS12 (11739890_at) / Fold change /veh PRSS12 (11739890_at) / RFU BIN1 (11741810_x_at) / Fold change /veh BIN1 (11741810_x_at) / RFU WNT11 (11732464_a_at) / Fold change /veh WNT11 (11732464_a_at) / RFU C10orf10 (11716521_a_at) / Fold change /veh C10orf10 (11716521_a_at) / RFU C5orf56 (11738089_at) / Fold change /veh C5orf56 (11738089_at) / RFU CYB561 (11721691_x_at) / Fold change /veh CYB561 (11721691_x_at) / RFU ANKRD19P (11752326_a_at) / Fold change /veh ANKRD19P (11752326_a_at) / RFU OR2T12 /// OR2T33 /// OR2T8 (11738714_s_at) / Fold change /veh OR2T12 /// OR2T33 /// OR2T8 (11738714_s_at) / RFU VCAN (11748164_a_at) / Fold change /veh VCAN (11748164_a_at) / RFU JSRP1 (11732532_at) / Fold change /veh JSRP1 (11732532_at) / RFU KRTAP10-11 (11738290_x_at) / Fold change /veh KRTAP10-11 (11738290_x_at) / RFU MYO3A (11730013_a_at) / Fold change /veh MYO3A (11730013_a_at) / RFU EBF3 (11725865_a_at) / Fold change /veh EBF3 (11725865_a_at) / RFU CAMK2N1 (11719241_x_at) / Fold change /veh CAMK2N1 (11719241_x_at) / RFU C5orf56 (11738088_a_at) / Fold change /veh C5orf56 (11738088_a_at) / RFU OLFML3 (11715873_a_at) / Fold change /veh OLFML3 (11715873_a_at) / RFU LOC100653217 /// NTM (11731650_a_at) / Fold change /veh LOC100653217 /// NTM (11731650_a_at) / RFU MAPK11 (11762145_a_at) / Fold change /veh MAPK11 (11762145_a_at) / RFU FIZ1 (11724087_x_at) / Fold change /veh FIZ1 (11724087_x_at) / RFU OASL (11726364_x_at) / Fold change /veh OASL (11726364_x_at) / RFU SOX15 (11748057_x_at) / Fold change /veh SOX15 (11748057_x_at) / RFU CD79A (11719716_a_at) / Fold change /veh CD79A (11719716_a_at) / RFU HIST1H1D (11736915_at) / Fold change /veh HIST1H1D (11736915_at) / RFU CASKIN2 (11723855_a_at) / Fold change /veh CASKIN2 (11723855_a_at) / RFU LOC730098 (11760151_x_at) / Fold change /veh LOC730098 (11760151_x_at) / RFU OR4N2 (11742367_at) / Fold change /veh OR4N2 (11742367_at) / RFU PRRT2 (11749266_a_at) / Fold change /veh PRRT2 (11749266_a_at) / RFU SNX32 (11753110_a_at) / Fold change /veh SNX32 (11753110_a_at) / RFU CDHR5 (11726645_a_at) / Fold change /veh CDHR5 (11726645_a_at) / RFU RCAN1 (11760418_a_at) / Fold change /veh RCAN1 (11760418_a_at) / RFU FAM167A (11723789_a_at) / Fold change /veh FAM167A (11723789_a_at) / RFU FAM26E (11764081_at) / Fold change /veh FAM26E (11764081_at) / RFU ISYNA1 (11749810_s_at) / Fold change /veh ISYNA1 (11749810_s_at) / RFU ACY1 (11761880_at) / Fold change /veh ACY1 (11761880_at) / RFU 11764098_at / Fold change /veh 11764098_at / RFU SAMD14 (11745864_x_at) / Fold change /veh SAMD14 (11745864_x_at) / RFU NPB (11741838_a_at) / Fold change /veh NPB (11741838_a_at) / RFU TMPRSS6 (11731388_a_at) / Fold change /veh TMPRSS6 (11731388_a_at) / RFU KRTAP10-2 (11738614_at) / Fold change /veh KRTAP10-2 (11738614_at) / RFU ARHGAP8 /// PRR5-ARHGAP8 (11727945_x_at) / Fold change /veh ARHGAP8 /// PRR5-ARHGAP8 (11727945_x_at) / RFU KRTAP5-7 /// NADSYN1 (11734609_at) / Fold change /veh KRTAP5-7 /// NADSYN1 (11734609_at) / RFU RASL12 (11751679_a_at) / Fold change /veh RASL12 (11751679_a_at) / RFU CDKN2B (11736163_a_at) / Fold change /veh CDKN2B (11736163_a_at) / RFU PRF1 (11729649_at) / Fold change /veh PRF1 (11729649_at) / RFU, ZNF638 /// ZNF638-IT1 / Fold change vs veh, ZNF638 /// ZNF638-IT1 / RFU, PANK3 / Fold change vs veh, PANK3 / RFU, SH3YL1 / Fold change vs veh, SH3YL1 / RFU, ZEB2 / Fold change vs veh, ZEB2 / RFU, NRIP1 / Fold change vs veh, NRIP1 / RFU, PTTG1IP / Fold change vs veh, PTTG1IP / RFU, CAPN2 / Fold change vs veh, CAPN2 / RFU, MED14 / Fold change vs veh, MED14 / RFU, SNORA58 / Fold change vs veh, SNORA58 / RFU, C1orf63 / Fold change vs veh, C1orf63 / RFU, LRRFIP1 / Fold change vs veh, LRRFIP1 / RFU, NDUFAF7 / Fold change vs veh, NDUFAF7 / RFU, SLC12A2 / Fold change vs veh, SLC12A2 / RFU, IBTK / Fold change vs veh, IBTK / RFU, ESF1 / Fold change vs veh, ESF1 / Fold change vs veh, TMEM50B / RFU, TAOK1 / Fold change vs veh, TAOK1 / RFU, ACBD3 / Fold change vs veh, ACBD3 / RFU, TMA16 / Fold change vs veh, TMA16 / RFU, RWDD3 / Fold change vs veh, RWDD3 / RFU, BCAT1 / Fold change vs veh, BCAT1 / RFU, EDEM3 / Fold change vs veh, EDEM3 / RFU, TMEM33 / Fold change vs veh, TMEM33 / RFU, WDR75 / Fold change vs veh, WDR75 / RFU, AHCTF1 / Fold change vs veh, AHCTF1 / RFU, TFRC / Fold change vs veh, TFRC / RFU, ZDHHC17 / Fold change vs veh, ZDHHC17 / RFU, NOM1 / Fold change vs veh, NOM1 / RFU, ARL8B / Fold change vs veh, ARL8B / RFU, ZBTB11 / Fold change vs veh, ZBTB11 / RFU, TAMM41 / Fold change vs veh, TAMM41 / RFU, KIAA1704 /// LOC100996395 / Fold change vs veh, KIAA1704 /// LOC100996395 / RFU, ING1 / Fold change vs veh, ING1 / RFU, TRMT61B / Fold change vs veh, TRMT61B / RFU, FUBP3 / Fold change vs veh, FUBP3 / RFU, TP53 / Fold change vs veh, TP53 / RFU, TNKS2 / Fold change vs veh, TNKS2 / RFU, ZFP14 / Fold change vs veh, ZFP14 / RFU, ACTR2 / Fold change vs veh, ACTR2 / RFU, PPP3R1 / Fold change vs veh, PPP3R1 / RFU, PIK3R1 / Fold change vs veh, PIK3R1 / RFU, HNRNPA1 / Fold change vs veh, HNRNPA1 / RFU, RNF170 / Fold change vs veh, RNF170 / RFU, ZNF28 / Fold change vs veh, ZNF28 / RFU, RNGTT / Fold change vs veh, RNGTT / RFU, OGT / Fold change vs veh, OGT / RFU, BRD1 / Fold change vs veh, BRD1 / RFU, MARS / Fold change vs veh, MARS / RFU, ZNF655 / Fold change vs veh, ZNF655 / RFU, FAHD1 / Fold change vs veh, FAHD1 / RFU, BDP1 / Fold change vs veh, BDP1 / RFU, LRRCC1 / Fold change vs veh, LRRCC1 / RFU, ARID1A / Fold change vs veh, ARID1A / RFU, ZNF146 / Fold change vs veh, ZNF146 / RFU, ZNF330 / Fold change vs veh, ZNF330 / RFU, GPN3 / Fold change vs veh, GPN3 / RFU, C9orf123 / Fold change vs veh, C9orf123 / RFU, N4BP2L2 / Fold change vs veh, N4BP2L2 / RFU, ARFIP1 / Fold change vs veh, ARFIP1 / RFU, FAM179B / Fold change vs veh, FAM179B / RFU, BCL10 / Fold change vs veh, BCL10 / RFU, UHRF1BP1L / Fold change vs veh, UHRF1BP1L / RFU, BET1 / Fold change vs veh, BET1 / RFU, CNOT2 / Fold change vs veh, CNOT2 / RFU, ZNF268 / Fold change vs veh, ZNF268 / Fold change vs veh, ZNF507 / RFU, DGCR2 / Fold change vs veh, DGCR2 / RFU, WDSUB1 / Fold change vs veh, WDSUB1 / Fold change vs veh, HSP90B1 /// MIR3652 / RFU, ADSS / Fold change vs veh, ADSS / RFU, GK / Fold change vs veh, GK / RFU, ZNF148 / Fold change vs veh, ZNF148 / RFU, TAF9 / Fold change vs veh, TAF9 / RFU, SLC1A5 / Fold change vs veh, SLC1A5 / RFU, SLMO2 / Fold change vs veh, SLMO2 / RFU, ABCC4 / Fold change vs veh, ABCC4 / RFU, LOC101060439 /// RAP1B / Fold change vs veh, LOC101060439 /// RAP1B / RFU, RFX7 / Fold change vs veh, RFX7 / RFU, GTPBP10 / Fold change vs veh, GTPBP10 / RFU, CNEP1R1 / Fold change vs veh, CNEP1R1 / RFU, BIVM-ERCC5 /// ERCC5 / Fold change vs veh, BIVM-ERCC5 /// ERCC5 / RFU, ILF3 / Fold change vs veh, ILF3 / RFU 11762660_at / Fold change /veh 11762660_at / RFU VCAN (11757783_s_at) / Fold change /veh VCAN (11757783_s_at) / RFU DDX43 (11728927_at) / Fold change /veh DDX43 (11728927_at) / RFU KRT8 (11758188_x_at) / Fold change /veh KRT8 (11758188_x_at) / RFU NKD1 (11759106_at) / Fold change /veh NKD1 (11759106_at) / RFU SRD5A1 (11742802_a_at) / Fold change /veh SRD5A1 (11742802_a_at) / RFU TPSAB1 /// TPSB2 (11721975_s_at) / Fold change /veh TPSAB1 /// TPSB2 (11721975_s_at) / RFU GSTM3 (11746129_a_at) / Fold change /veh GSTM3 (11746129_a_at) / RFU IL23R (11737362_x_at) / Fold change /veh IL23R (11737362_x_at) / RFU TMEM51 (11727254_a_at) / Fold change /veh TMEM51 (11727254_a_at) / RFU PIWIL2 (11732686_x_at) / Fold change /veh PIWIL2 (11732686_x_at) / RFU ORM1 (11744905_x_at) / Fold change /veh ORM1 (11744905_x_at) / RFU CCDC152 (11743942_at) / Fold change /veh CCDC152 (11743942_at) / RFU ECM1 (11717891_a_at) / Fold change /veh ECM1 (11717891_a_at) / RFU IL23R (11748794_a_at) / Fold change /veh IL23R (11748794_a_at) / RFU TNFAIP8L3 (11732012_x_at) / Fold change /veh TNFAIP8L3 (11732012_x_at) / RFU MBOAT4 (11741988_at) / Fold change /veh MBOAT4 (11741988_at) / RFU 11764193_at / Fold change /veh 11764193_at / RFU TMEM53 (11763286_at) / Fold change /veh TMEM53 (11763286_at) / RFU MAGEB2 (11727129_at) / Fold change /veh MAGEB2 (11727129_at) / RFU TMEM200A (11744735_a_at) / Fold change /veh TMEM200A (11744735_a_at) / RFU CCDC152 (11751479_a_at) / Fold change /veh CCDC152 (11751479_a_at) / RFU FAM211A (11726209_a_at) / Fold change /veh FAM211A (11726209_a_at) / RFU RGS16 (11746705_a_at) / Fold change /veh RGS16 (11746705_a_at) / RFU VCAN (11755009_s_at) / Fold change /veh VCAN (11755009_s_at) / RFU RHOB (11743442_s_at) / Fold change /veh RHOB (11743442_s_at) / RFU RGS16 (11720943_a_at) / Fold change /veh RGS16 (11720943_a_at) / RFU RGS16 (11720944_at) / Fold change /veh RGS16 (11720944_at) / RFU, VPS4B / Fold change vs veh, VPS4B / RFU, CREB1 / Fold change vs veh, CREB1 / RFU, DNAJC13 / Fold change vs veh, DNAJC13 / RFU, GNAQ / Fold change vs veh, GNAQ / RFU, CDK5R1 / Fold change vs veh, CDK5R1 / RFU, ZRANB3 / Fold change vs veh, ZRANB3 / RFU, CUL4A / Fold change vs veh, CUL4A / RFU, CCNY / Fold change vs veh, CCNY / RFU, UFL1 / Fold change vs veh, UFL1 / RFU, COG3 / Fold change vs veh, COG3 / RFU, DIAPH2 / Fold change vs veh, DIAPH2 / RFU, SKA2 / Fold change vs veh, SKA2 / RFU, AFF3 / Fold change vs veh, AFF3 / RFU, LMF1 / Fold change vs veh, LMF1 / RFU, IPO11 / Fold change vs veh, IPO11 / RFU, DFFB / Fold change vs veh, DFFB / RFU, FOXP1 / Fold change vs veh, FOXP1 / RFU, CARD8 / Fold change vs veh, CARD8 / RFU, STRN3 / Fold change vs veh, STRN3 / RFU, ADK / Fold change vs veh, ADK / RFU, RASSF2 / Fold change vs veh, RASSF2 / RFU, WIPF1 / Fold change vs veh, WIPF1 / RFU, LARP1B / Fold change vs veh, LARP1B / RFU, RASA1 / Fold change vs veh, RASA1 / RFU, RB1 / Fold change vs veh, RB1 / RFU, PPFIA1 / Fold change vs veh, PPFIA1 / RFU, MAT2A / Fold change vs veh, MAT2A / RFU, CCT5 / Fold change vs veh, CCT5 / RFU, WDR92 / Fold change vs veh, WDR92 / RFU, CUX1 / Fold change vs veh, CUX1 / RFU, TTC7A / Fold change vs veh, TTC7A / RFU, TMEM135 / Fold change vs veh, TMEM135 / RFU, DEPTOR / Fold change vs veh, DEPTOR / RFU, CPM / Fold change vs veh, CPM / RFU, DNAJB6 / Fold change vs veh, DNAJB6 / RFU, CACNA2D3 / Fold change vs veh, CACNA2D3 / RFU, DTX4 / Fold change vs veh, DTX4 / RFU, TFCP2 / Fold change vs veh, TFCP2 / RFU, GMCL1 /// GMCL1P1 / Fold change vs veh, GMCL1 /// GMCL1P1 / RFU, AEBP2 / Fold change vs veh, AEBP2 / RFU, SNHG1 /// SNORD22 /// SNORD25 /// SNORD26 /// SNORD27 /// SNORD28 /// SNORD29 /// SNORD31 / Fold change vs veh, SNHG1 /// SNORD22 /// SNORD25 /// SNORD26 /// SNORD27 /// SNORD28 /// SNORD29 /// SNORD31 / Fold change (Aza/veh), C12orf56 (ProbeSet 11735607_a_at) / Fold change (ACY-1035/veh), C12orf56 (ProbeSet 11735607_a_at) / Fold change (Aza/veh), FGFR1OP (ProbeSet 11751329_s_at) / Fold change (ACY-1035/veh), FGFR1OP (ProbeSet 11751329_s_at) / Fold change (Aza/veh), VPS36 (ProbeSet 11739960_a_at) / Fold change (ACY-1035/veh), VPS36 (ProbeSet 11739960_a_at) / RFU SYPL1 (11715823_x_at) / Fold change /veh SYPL1 (11715823_x_at) / RFU IGFBP7 (11715501_s_at) / Fold change /veh IGFBP7 (11715501_s_at) / RFU REEP3 (11722064_at) / Fold change /veh REEP3 (11722064_at) / RFU IGLL1 (11728026_x_at) / Fold change /veh IGLL1 (11728026_x_at): dose or concentration left out as unconfirmed
Settings: ProbeSet 11728443_a_at; LIST B

In the case of Nc1ccc(-c2cccs2)cc1NC(=O)c1ccc2c(c1)cc(C1CC1)n2CCN1CCOCC1 [ACY-1035], the “RFU, TAOK1” value is reported as 54.83 RFU.
